Values of other authors in patent US20070167418A1 (priority 2004, published 2007).
Like-named read-outs stand apart in the source and are kept apart here.

What was measured:
ED = conditions: oral
men with ED [1] = conditions: intraurethral suppositories
[2] = in vivo
men with ED [3] = conditions: 100 mg; placebo twenty-two percent
[4] = not given; remark: listed apart in the source

With `COC(=O)[C@@H]1[C@H]2C[C@H]3c4[nH]c5ccccc5c4CCN3C[C@@H]2CC[C@@H]1O` [Yohimbine] as the compound, how does the “efficacy in the treatment of ED” value (ED) read?
The value was “limited efficacy”.

Which “efficacy compared with penile injection” value (men with ED [1]) does the source give for `CCCCC[C@H](O)/C=C/[C@H]1[C@H](O)CC(=O)[C@@H]1CCCCCCC(=O)O` [alprostadil] here?
Its value is “less effective”.

With `CC(C)NCC(O)COc1ccc(CC(N)=O)cc1` (stereo not shown) [atenolol] as the compound, how does the “men reporting ED after beginning treatment” value (50 mg, men informed of its sexual adverse effects) read?
The value was 31%.

What about the “men reporting ED after beginning treatment” value (similarly treated, men blinded as to the study drug) of the same compound?
Its value is 3%.

For `CCCc1nn(C)c2c(=O)[nH]c(-c3cc(S(=O)(=O)N4CCN(C)CC4)ccc3OCC)nc12` [sildenafil], which half-life [2] is on record?
The half-life was “four to five”.

And the “men achieving successful intercourse” value (men with ED [3])?
Its value is “sixty-nine”.

With `CN1CC(=O)N2[C@H](c3ccc4c(c3)OCO4)c3[nH]c4ccccc4c3C[C@@H]2C1=O` [tadalafil] as the compound, how does the half-life [2] read?
The half-life was “approximately eighteen”.

What does the source list for `C[C@]12CC[C@H]3[C@@H](CCC4=CC(=O)CC[C@@]43C)[C@@H]1CC[C@@H]2O` [testosterone]?
restoring physiological testosterone levels ([4]; gels): high efficacy; men with erythrocytosis ([4]; gels or patches): 5%; men with gynecomastia, peripheral edema, exacerbation or de novo sleep apnea, acne and mild weight gain ([4]; in vivo): less than 2%; men with erythrocytosis ([4]; injections): ≤ 50%; hepatotoxicity risk ([4]; oral agents available in the United States): significant risk of hepatotoxity; liver toxicity ([4]; transdermal or intramuscular preparations): does not seem to be associated; men with local skin reactions ([4]; transdermal, patches): ≤ 40%

For `CCCc1nc(C)c2c(=O)[nH]c(-c3cc(S(=O)(=O)N4CCN(CC)CC4)ccc3OCC)nn12` [vardenafil], which half-life [2] is on record?
The half-life was “four to five”.

And the “time of peak serum concentrations” value [2]?
The value was “approximately one”.
